Experimental data taken from paper PMC4904262 (ACS Medicinal Chemistry Letters, 2016).

Tests used:
in vitro [1] = settings: mouse, microsomes
in vitro [2] = settings: rat, microsomes
in vitro [3] = settings: human, microsomes
aldehyde oxidase = aldehyde oxidase (Homo sapiens, UniProt Q06278); settings: for % of parent compd remaining after 45 min: human, cytosol, 0.75 h, 1 µM
Caco-2 = settings: human

Sequence of aldehyde oxidase (Q06278 whole entry): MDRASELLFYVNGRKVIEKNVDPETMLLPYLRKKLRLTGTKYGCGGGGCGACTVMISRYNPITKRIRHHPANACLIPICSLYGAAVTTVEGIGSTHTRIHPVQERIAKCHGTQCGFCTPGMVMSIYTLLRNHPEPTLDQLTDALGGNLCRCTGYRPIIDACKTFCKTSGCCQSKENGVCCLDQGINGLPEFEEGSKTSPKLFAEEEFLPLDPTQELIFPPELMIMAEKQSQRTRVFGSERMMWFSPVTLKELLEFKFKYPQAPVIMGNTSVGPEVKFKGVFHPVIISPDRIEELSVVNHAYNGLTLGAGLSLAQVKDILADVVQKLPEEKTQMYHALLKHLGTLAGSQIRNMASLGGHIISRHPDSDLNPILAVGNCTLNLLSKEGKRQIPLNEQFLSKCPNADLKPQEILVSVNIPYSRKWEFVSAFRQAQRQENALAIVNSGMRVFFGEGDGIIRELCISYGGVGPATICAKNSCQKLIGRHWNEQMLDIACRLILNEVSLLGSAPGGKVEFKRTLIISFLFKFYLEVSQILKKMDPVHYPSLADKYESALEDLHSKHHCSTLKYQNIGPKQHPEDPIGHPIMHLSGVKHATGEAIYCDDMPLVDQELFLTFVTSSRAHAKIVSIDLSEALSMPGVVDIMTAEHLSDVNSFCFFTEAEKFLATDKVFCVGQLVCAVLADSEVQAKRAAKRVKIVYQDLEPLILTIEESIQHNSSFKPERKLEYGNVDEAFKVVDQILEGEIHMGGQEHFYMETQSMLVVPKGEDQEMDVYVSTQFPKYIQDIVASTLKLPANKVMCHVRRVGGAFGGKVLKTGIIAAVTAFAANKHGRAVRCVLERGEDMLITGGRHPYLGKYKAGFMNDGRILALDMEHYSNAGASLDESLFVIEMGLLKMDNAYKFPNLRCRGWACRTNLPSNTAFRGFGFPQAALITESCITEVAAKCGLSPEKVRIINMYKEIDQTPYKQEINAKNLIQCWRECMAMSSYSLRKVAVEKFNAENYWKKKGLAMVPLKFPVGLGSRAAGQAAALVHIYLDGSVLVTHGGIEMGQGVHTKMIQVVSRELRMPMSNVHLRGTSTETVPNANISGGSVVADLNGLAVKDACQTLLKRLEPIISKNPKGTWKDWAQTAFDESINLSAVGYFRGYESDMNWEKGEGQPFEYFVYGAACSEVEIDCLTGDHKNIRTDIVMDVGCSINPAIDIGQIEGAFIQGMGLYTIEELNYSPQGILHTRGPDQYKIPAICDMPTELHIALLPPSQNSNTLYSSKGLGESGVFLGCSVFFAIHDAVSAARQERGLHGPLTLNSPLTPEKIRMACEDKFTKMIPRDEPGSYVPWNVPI

Row | Structure (SMILES) | microsomal CLint at 1 µM (in vitro [1]) [µL/min/mg] | microsomal CLint (in vitro [2]) [µL/min/mg] | microsomal CLint at 1 µM (in vitro [3]) [µL/min/mg] | microsomal CLint at 1 µM (in vitro [2]) [µL/min/mg] | AO substrate (Enzyme assay) (aldehyde oxidase) | % of parent compd remaining after 45 min (aldehyde oxidase) [%] | Caco-2 ER (Caco-2) | Caco-2 PappA-B (Caco-2) | microsomal CLint (in vitro [3]) [µL/min/mg]
1 | CNC(=O)c1ccc2cncc(-c3ccc(-c4cnn(C)c4)cc3)c2n1 [Compound 4] | 172 | > 1000 | 40 |  |  |  |  |  | 
2 | CNC(=O)c1ccc2cncc(-c3ccc4c(cnn4C)c3)c2n1 [Compound 5] | 444 |  | 116 | 699 |  |  |  |  | 
3 | CNC(=O)c1ccc2cncc(-c3ccc4cnn(C)c4c3)c2n1 [Compound 6] | 333 |  | 32 | 178 |  |  |  |  | 
4 | Cn1cc(-c2ccc(-c3cncc4ccc(C(N)=O)nc34)cc2)cn1 [Compound 9] | 155 |  | 34 |  |  |  |  |  | 
5 | Cn1cc(-c2ccc(-c3cncc4ccc(C(=O)N5CCC5)nc34)cc2)cn1 [Compound 12] | 143 |  | 38 | 85 |  |  |  |  | 
6 | COC1CN(C(=O)c2ccc3cncc(-c4ccc(-c5cnn(C)c5)cc4)c3n2)C1 [Compound 13] | 95 |  | 35 | 327 | Yes | 0 |  |  | 
7 | Cn1cc(-c2ccc(-c3cncc4ccc(C(=O)N5CC(F)(F)C5)nc34)cc2)cn1 [Compound 14] | 160 |  | 111 | 317 |  |  |  |  | 
8 | Cn1cc(-c2ccc(-c3cncc4ccc(C(=O)N5CCCC5)nc34)cc2)cn1 [Compound 15] | 321 |  | 38 | 55 |  |  |  |  | 
9 | Cn1cc(-c2ccc(-c3cncc4ccc(C(=O)N5CCOCC5)nc34)cc2)cn1 [Compound 16] | 83 |  | 41 | 23 |  |  |  |  | 
10 | Cn1cc(-c2ccc(-c3cncc4ccc(N5CCNC5=O)nc34)cc2)cn1 [Compound 20] | 246 |  | 64 | 323 |  |  |  |  | 
11 | Cn1cc(-c2ccc(-c3cncc4ccc(-c5ccnn5C)nc34)cc2)cn1 [Compound 23] | 310 |  | 144 | 761 |  |  |  |  | 
12 | Cn1cc(-c2ccc(-c3cncc4ccc(-c5ccn(C)n5)nc34)cc2)cn1 [Compound 24] | 299 |  | 45 | 212 |  |  |  |  | 
13 | CNC(=O)c1ccc2cncc(-c3ccc(-c4cnn(C)c4)cc3)c2c1 [Compound 27] | 275 |  | 27 |  |  | 0 |  |  | 
14 | Cn1cc(-c2ccc(-c3cncc4ccc(C(=O)NC5CC5)cc34)cc2)cn1 [Compound 28] | 141 |  | 31 | 98 | Yes |  |  |  | 
15 | COC1CN(C(=O)c2ccc3cncc(-c4ccc(-c5cnn(C)c5)cc4)c3c2)C1 [Compound 29] | 403 |  | 56 | 337 | Yes | 1 |  |  | 
16 | Cn1cc(-c2ccc(-c3cncc4ccc(C(=O)N5CC(F)(F)C5)cc34)cc2)cn1 [Compound 30] | 321 |  | 470 | 207 |  | 0 |  |  | 
17 | CC(=O)Nc1ccc2cncc(-c3ccc(-c4cnn(C)c4)cc3)c2c1 [Compound 31] | 200 |  | 26 | 90 | Yes |  |  |  | 

Other lines, results leading:

Row | microsomal CLint at 1 µM (in vitro [1]) [µL/min/mg] | microsomal CLint (in vitro [2]) [µL/min/mg] | microsomal CLint at 1 µM (in vitro [3]) [µL/min/mg] | microsomal CLint at 1 µM (in vitro [2]) [µL/min/mg] | AO substrate (Enzyme assay) (aldehyde oxidase) | % of parent compd remaining after 45 min (aldehyde oxidase) [%] | Caco-2 ER (Caco-2) | Caco-2 PappA-B (Caco-2) | microsomal CLint (in vitro [3]) [µL/min/mg] | Structure (SMILES)
18 | 129 |  | 81 | 96 |  | 3 |  |  |  | Cn1cc(-c2ccc(-c3cncc4ccc(-c5ncco5)cc34)cc2)cn1 [Compound 32]
19 | 570 |  | 398 | 307 |  |  |  |  |  | Cn1cc(-c2ccc(-c3cncc4ccc(-c5nccn5C)cc34)cc2)cn1 [Compound 33]
20 | 380 |  | 66 | 102 | Yes |  |  |  |  | Cn1cc(-c2ccc(-c3cncc4ccc(N5CCOC5=O)cc34)cc2)cn1 [Compound 34]
21 |  |  |  |  |  |  | 9 | 34.0 × 10^–6 cm/s |  | Cn1cc(-c2ccc(-c3cnc(N)c4ccc(C(=O)N5CCOCC5)nc34)cc2)cn1 [Compound 50]
22 | 61 |  | 24 | 38 |  |  | 5.3 | 42.6 × 10^–6 cm/s |  | Cn1cc(-c2ccc(-c3cnc(N)c4ccc(C(=O)N5CCC5)nc34)cc2)cn1 [Compound 52]
23 | 48 | 25 |  |  |  |  | 5.8 | 40.1 × 10^–6 cm/s | 25 | COC1(C)CN(C(=O)c2ccc3c(N)ncc(-c4ccc(-c5cnn(C)c5)cc4)c3n2)C1 [Compound 53]
24 | 107 |  | 25 | 19 |  |  | 1.8 | 23.9 × 10^–6 cm/s |  | Cn1cc(-c2ccc(-c3cnc(N)c4ccc(C(=O)N5CC(F)(F)C5)nc34)cc2)cn1 [Compound 54]
25 | 125 |  | 20 | 24 |  |  | 3.4 | 27.6 × 10^–6 cm/s |  | Cn1cc(-c2ccc(-c3cnc(N)c4ccc(C(=O)N5CC(C)(F)C5)nc34)cc2)cn1 [Compound 55]
26 | 81 |  | 30 | 63 |  |  | 5.0 | 30 × 10^–6 cm/s |  | Cn1cc(-c2ccc(-c3cnc(N)c4ccc(C(=O)N5CCCC5)nc34)cc2)cn1 [Compound 56]
27 | 23 |  |  | 11 |  |  | 5.5 | 27.2 × 10^–6 cm/s | < 10 | Cn1cc(-c2ccc(-c3cnc(N)c4ccc(C(=O)N5CCC5)cc34)cc2)cn1 [Compound 58]
28 | 26 |  | 64 | 17 |  |  | 7.2 | 25.2 × 10^–6 cm/s |  | COC1(C)CN(C(=O)c2ccc3c(N)ncc(-c4ccc(-c5cnn(C)c5)cc4)c3c2)C1 [Compound 60]
29 | 78 |  | 123 | 17 |  |  | 3.8 | 39.7 × 10^–6 cm/s |  | Cn1cc(-c2ccc(-c3cnc(N)c4ccc(C(=O)N5CC(F)(F)C5)cc34)cc2)cn1 [Compound 61]
30 | 43 |  | 76 | 28 |  |  | 3.4 | 25.8 × 10^–6 cm/s |  | Cn1cc(-c2ccc(-c3cnc(N)c4ccc(C(=O)N5CC(C)(F)C5)cc34)cc2)cn1 [Compound 62]
31 | 39 |  | 16 | 22 | No |  | 13.2 | 32.5 × 10^–6 cm/s |  | Cn1cc(-c2ccc(-c3cnc(N)c4ccc(C(=O)NC5CC5)cc34)cc2)cn1 [Compound 64]
32 | 66 |  | 14 | 19 | No |  | 16.2 | 20.6 × 10^–6 cm/s |  | Cn1cc(-c2ccc(-c3cnc(N)c4ccc(N5CCOC5=O)cc34)cc2)cn1 [Compound 65]
